{
  "source": "paper PMC11400633",
  "about": "“Peptides inhibiting the assembly of monomeric human L‐lactate dehydrogenase into catalytically active homotetramer decrease the synthesis of lactate in cultured cells” (Protein Science : A Publication of the Protein Society, 2024)",
  "key": {"[1]": {"target": "T1, tetrameric LDH‐A (Homo sapiens, UniProt P00338)", "T1 construct": "made in house; host or cells: E. coli BL21(DE3), pET9a (NdeI/BamHI)", "assay": "Steady-state kinetics of pyruvate reduction by tetrameric LDH-A", "assay_type": "biochemical", "details": "variable pyruvate, 125 μM β-NADH, 2.56 nM tetramer, pH 7.5, 25°C", "method": "(§1) To further characterize the catalytic action of monomeric LDH-A exposed to β-NADH and pyruvate, and therefore assembled into tetramer (cf. […] In addition, the kinetics of pyruvate reduction catalyzed by tetrameric LDH-A was assayed under the same conditions used for the monomeric enzyme. Structurally and functionally speaking, the availability of monomeric LDH-A does indeed provide an unprecedented and quite interesting tool to perform quantitative tests of the assembly of monomers into the corresponding catalytically active tetramer. […] In addition to this, the enzyme kinetic parameters were also determined testing reaction velocity as a function of β-NADH concentration, in the presence of 500 μM pyruvate. […] The continuous lines represent the best fit of the Michaelis-Menten equation to the experimental observations. […] The continuous lines represent the best fit of the Michaelis-Menten equation to the experimental observations. (c) Kinetic parameters determined by performing activity assays using monomeric or tetrameric LDH-A, at the indicated final concentrations. Under conditions of variable pyruvate concentration, β-NADH was always used at 125 μM. When reaction mixtures contained variable concentrations of the redox cofactor, pyruvate was invariably added at 500 μM. All the assays were performed at pH 7.5 (Tris-BisTris, 10 mM each."}, "[2]": {"target": "T2, monomeric human LDH‐A (Homo sapiens, UniProt P00338)", "T2 construct": "made in house; host or cells: E. coli BL21(DE3), pET9a (NdeI/BamHI)", "assay": "Steady-state kinetics of pyruvate reduction by monomeric LDH-A (assembled monomers)", "assay_type": "biochemical", "details": "variable pyruvate, 125 μM β-NADH, 9.80 nM monomer, pH 7.5, 25°C", "method": "as §1"}, "[3]": {"target": "T1, tetrameric LDH‐A", "details": "previous observation, cited from earlier work", "text": "Accordingly, monomeric LDH‐A features a rather high K m for pyruvate and, as previously mentioned, we interpret this feature as indicative of a secondary site for pyruvate, possibly engaged in the stabilization of the assembled tetramer."}, "[4]": {"target": "dimeric LDH‐B", "details": "ref Thabault et al., 2020; read-out: K D for dimeric LDH‐B; cited from earlier work", "text": "(§2) In particular, the loss of activity related to the dissociation of tetrameric LDH‐A (Hermann et al., [1981]; Pasti et al., [2022]) prompts the search for peptides able to interfere with the quaternary structure of this enzyme. Peptides can indeed mimic a secondary structure element supposed to be a major determinant of the reciprocal interactions engaged by the subunits of an oligomeric protein (Wang et al., [2021]). Nevertheless, it should be noted that the effectivenes ..."}, "[5]": {"test_system": "LDH‐5", "details": "LDH-5 exposed to pH 2.5, incubated with peptide 2 min, then pH 7.4; ref Nadal‐Bufi et al., 2021; cited from earlier work", "text": "as §2, with “... || Structurally speaking, the four subunits of LDH‐5 are arranged as a binary association of dimers, with their N‐ and C‐terminal regions reciprocally engaged in dimer‐dimer interactions (Read et al., [2001]). […] Moreov ...” for “...”"}, "[6]": {"test_system": "LDH‐A", "details": "dynamic light scattering; shift from about 240 kDa; ref Jafary et al., 2019; cited from earlier work", "text": "as §2"}},
  "note": "pKd: −log10 of the molar value. Where “and” joins values, the source holds several entries; their conditions need not be identical. Equal entries are not always repeated. Where two headings read alike, the source gives them in different places.",
  "data": [
    {"compound": "CC(=O)C(=O)O", "note": "[pyruvate]", "values": [
      {"measurement": "K m for pyruvate, tetrameric LDH‐A", "setting": "[1]", "value": "271 ± 40 µM and 271 µM"},
      {"measurement": "K m for pyruvate, monomeric LDH‐A (assembled monomers)", "setting": "[2]", "value": "561 ± 74 µM and 560 µM"},
      {"measurement": "K m for pyruvate, tetrameric enzyme", "setting": "[3]; ref Pasti et al., 2022", "value": 252, "unit": "µM"},
      {"measurement": "K m for pyruvate, tetrameric enzyme", "setting": "[3]; ref Pettit et al., 1981", "value": 398, "unit": "µM"}
    ]},
    {"compound": "ATLKEKLI", "values": [
      {"measurement": "pKd", "setting": "[4]", "value": 3.00}
    ]},
    {"compound": "Ac-QNGISDLVK-NH2 [Peptide C1]", "values": [
      {"measurement": "action against LDH‐A (in words)", "setting": "[5]", "value": "ineffective"}
    ]},
    {"compound": "IYNLLK [hexamer of the literature targeting the C‐terminal region of LDH‐A]", "values": [
      {"measurement": "apparent LDH‐A molecular mass in the presence of peptide", "setting": "[6]", "value": "ca. 100 kDa"}
    ]},
    {"compound": "KVVYNV [hexamer of the literature targeting the C‐terminal region of LDH‐A]", "values": [
      {"measurement": "apparent LDH‐A molecular mass in the presence of peptide", "setting": "[6]", "value": "ca. 100 kDa"}
    ]}
  ]
}
